Experiments:
[1] = system: Human bone marrow derived mesenchymal stem cells; assay: TNFSF10 (TRAIL) mRNA induction (quantitative real-time PCR) in mesenchymal stem cells, type 1 priming; format: cell-based; conditions: normalized to 18S rRNA
Protocol: Referring to FIG. 4A and FIG. 4B, Type 1 mesenchymal stem cell priming by TLR4 is further enhanced with leukotriene B4 (LTB4), serotonin (5-HT), melatonin (MEL). Human bone marrow derived mesenchymal stem cells were induced into type 1 mesenchymal stem cells using lipopolysaccharide (LPS) and 0.5 ng/ml of human recombinant erythropoietin. Total RNA was isolated, purified, and reverse transcribed to cDNA. Quantitative real-time PCR was carried out using SYBR Green Master Mix. Data were analyzed using the quantitative comparative CT method, normalizing target gene expression to the 18S rRNA housekeeping gene, and shown as fold increase over the untreated control. […] Error bars represent +/− the standard error of the mean (SEM). […] TLR4 (approx. 425,854-fold FIG. 4A; approx. 7,567-fold FIG. 4B), LTB4 (approx. 49-fold FIG. 4A; approx. 49-fold FIG. 4B), 5-HT (approx. 333-fold FIG. 4B), or MEL (approx. 489-fold FIG. 4B).

[2] = system: Human bone marrow derived mesenchymal stem cells; assay: CXCL9 mRNA induction (quantitative real-time PCR) in mesenchymal stem cells, type 2 priming; format: cell-based; conditions: normalized to 18S rRNA
Protocol: Referring to FIG. 3A and FIG. 3B, Type 2 mesenchymal stem cell priming by TLR3 is further enhanced with Acetylcholine (ACH), Glutamate (GLU), and Lipoxin A4 (LAX4). Human bone marrow derived mesenchymal stem cells were induced into type 2 mesenchymal cells using poly(I:C) and 0.5 ng/ml of human recombinant erythropoictin. Total RNA was isolated, purified, and reverse transcribed to cDNA. Quantitative real-time PCR was carried out using SYBR Green Master Mix. Data were analyzed using the quantitative comparative CT method, normalizing target gene expression to the 18S rRNA housekeeping gene, and shown as fold increase over the untreated control. […] Error bars represent +/− the standard error of the mean (SEM).

| Compound | TNFSF10 (TRAIL) gene expression, fold increase over the untreated control ([1]; FIG. 4B experiment) | CXCL9 gene expression, fold increase over the untreated control ([2]; FIG. 3A experiment) | CXCL9 gene expression, fold increase over the untreated control ([2]; FIG. 3B experiment) | TNFSF10 (TRAIL) gene expression, fold increase over the untreated control ([1]; FIG. 4A experiment) |
| --- | --- | --- | --- | --- |
| NCCc1c[nH]c2ccc(O)cc12 [5-HT, serotonin] | approx. 333 fold | – | – | – |
| CC(=O)OCC[N+](C)(C)C [ACH, Acetylcholine] | – | approx. 3.7 fold | approx. 20 fold | – |
| N[C@@H](CCC(=O)O)C(=O)O [GLU, Glutamate] | – | approx. 1.4 fold | approx. 16 fold | – |
| CCCCC[C@H](O)/C=C/C=C\C=C\C=C\[C@@H](O)[C@@H](O)CCCC(=O)O [LAX4, Lipoxin A4] | – | approx. −2 fold | approx. 13 fold | – |
| CCCCC/C=C\C[C@@H](O)/C=C/C=C/C=C\[C@@H](O)CCCC(=O)O [LTB4, leukotriene B4] | approx. 49 fold | – | – | approx. 49 fold |
| COc1ccc2[nH]cc(CCNC(C)=O)c2c1 [MEL, melatonin] | approx. 489 fold | – | – | – |
| poly(I:C) [TLR3] | – | approx. 8.8 fold | approx. 22 fold | – |

— patent US12553033B2, “Medium, methods, cells and secreted factors for stem cell culture and therapy” (SanBio, Inc., priority 2016, dated 2026)
